Values after ≈ are worked out from the molar mass of the structure shown.
Tests used:
[1] = test system: Escherichia coli (NCTC 13441); assay: MIC by broth microdilution (CLSI); type: cell-based; conditions: NCTC13441, planktonic bacteria, 20-24 hour incubation
Protocol: (§1) Minimum Inhibitory Concentrations (MICs) versus Escherichia coli (NCTC 13441) and Klebsiella pneumoniae (NCTC 13438) (planktonic bacteria) were determined by the broth microdilution procedure in line with the guidelines of the Clinical and Laboratory Standards Institute (Clinical and Laboratory Standards Institute. Methods for Dilution Antimicrobial Susceptibility Tests for Bacteria That Grow Aerobically, Approved Standard-Eleventh Edition, CLSI document M07, 11 Jan. 2018). The broth dilution method involved a two-fold serial dilution of compounds in 96-well microtitre plates, giving a final concentration range of 0.39-200 μM and a maximum final concentration of 2% DMSO. The bacterial strains tested were Escherichia coli (NCTC 13441) and Klebsiella pneumoniae (NCTC 13438). Strains were grown in cation-adjusted Müller-Hinton broth or on Luria Bertani agar at 37° C. in an ambient atmosphere. The MIC (μM) was determined as the lowest concentration of compound that inhibits growth following a 20-24 hour incubation period.

[2] = test system: Klebsiella pneumoniae (NCTC 13438); assay: MIC by broth microdilution (CLSI); type: cell-based; conditions: NCTC13438, planktonic bacteria, 20-24 hour incubation
Protocol: as §1

[3] = Volume of distribution (Vss) from mouse plasma profiles; type: in vivo; conditions: mice, 5 mg/kg IV bolus, 2 compartment model
Protocol: The volume of distribution (Vss) of compound (I) and comparative compounds (II) and (III) was determined from analysis of plasma concentration time profiles obtained from rodent species (mice), following 5 mg/kg IV bolus administration respectively. The volume of distribution was obtained by analysing the rodent plasma profiles for compound (I) and comparative compounds (II) and (III) using a 2 compartment IV bolus model in PK Solver (Excel). The volume of distribution data for compound (I) and comparative compound (II) was collected in separate experiments carried out on different days, and compared in Table 6.

[4] = test system: E. coli BAA-2469 (NDM-1 positive); assay: Murine bacteraemia / bloodstream infection proof-of-concept study, IV bolus; type: in vivo
Protocol: (§2) Compound (I) and comparative compound (III) were evaluated in proof-of-concept studies in murine models for the treatment of a respiratory infection with Gram-negative bacteria of the order Enterobacterales, a bacteraemia or bloodstream infection with Gram-negative bacteria of the order Enterobacterales, and a urinary tract infection with Gram-negative bacteria of the order Enterobacterales. Each dot, triangle or square indicator represents a single mouse. LOD refers to the limit of detection of the bacteria. […] Each of the proof-of-concept studies was carried out separately. By vehicle is meant pharmaceutically acceptable carrier or excipient.
For the proof-of-concept study for the treatment of a bacteraemia or bloodstream infection with Gram-negative bacteria of the order Enterobacterales, CD-1 mice were infected with human urine isolate E. coli BAA-2469 (NDM-1 positive). One hour after infection (‘pre-treatment’ in FIG. 3), a vehicle (20% hydroxypropyl β cyclodextrin) containing no compound (I) or comparative compound (III), or a vehicle (20% hydroxypropyl β cyclodextrin) containing compound (I) or comparative compound (III), was administered by as a single dose IV bolus at 20 mg/kg.

E. coli UT189 [5] = assay: Murine urinary tract infection proof-of-concept study, IV bolus; type: in vivo
Protocol: as §2, with “excipient. For the proof-of-concept study for the treatment of a urinary tract infection with Enterobacterales, female C3H/HeN mice were infected with E. coli UT189. Twenty-four hours after infection (‘pre-treatment’ in FIGS. 4a-c), a vehicle (20% hydroxypropyl β cyclodextrin) containing no compound (I) or comparative compound (III), or a vehicle (20% hydroxypropyl β cyclodextrin) containing compound (I) or comparative compound (III), was administered by IV bolus of 20 mg/kg, TID (8 hrs apart), over 3 days.” for “excipient.”

E. coli UT189 [6] = assay: Further murine urinary tract infection study, intravenous infusion; type: in vivo; conditions: 96 h
Protocol: Compound (I) was evaluated in further proof-of-concept studies in murine models for the treatment of a respiratory infection with Gram-negative bacteria of the order Enterobacterales, and a urinary tract infection with Gram-negative bacteria of the order Enterobacterales. Each dot, triangle or square indicator represents a single mouse. LOD refers to the limit of detection of the bacteria. […] Each of the proof-of-concept studies was carried out separately. By vehicle is meant pharmaceutically acceptable excipient or carrier. For the further proof-of-concept study for the treatment of a urinary tract infection with Enterobacterales, female C3H/HeN mice were infected with E. coli UT189. Twenty-four hours after infection (‘pre-treatment’ in FIGS. 6a-c), mice were either treated with a vehicle control (20% hydroxypropyl β cyclodextrin) containing no compound (I), or a vehicle (20% hydroxypropyl β cyclodextrin) containing compound (I), administered by intravenous infusion for 1 hour (QD) with a dose of 20 mg/kg of compound (I). For some mice who received vehicle containing compound (I), an additional 1-hour continuous intravenous infusion was administered 5 hours after the time at which the first administration begun (BID, 5 hrs apart). The once or twice daily administration was continued for three days. For QD, administration took place between 24 to 25 hours, 48 to 49 hours, and 72 to 73 hours after infection, and for BID, administration took place between 24 to 25 hours, 29 to 30 hours, 48 to 49 hours, 53 to 54 hours, 72 to 73 hours and 77 to 78 hours after infection.

[7] = IV bolus 20 mg/kg TID over 3 days, 96 h after initial infection
[8] = difference in log reduction, 96 h
[9] = 1 h IV infusion 20 mg/kg BID (5 hrs apart) for three days
[10] = 1 h IV infusion 20 mg/kg QD for three days

Cc1cnccc1-c1[nH]c(N)nc1-c1ccc2c(c1)N(C(=O)C(C)(C)N)CCO2 [Compound (I), 2-amino-1-(6-(2-amino-5-(3-methylpyridin-4-yl)-1H-imidazol-4-yl)-2,3-dihydro-4H-benzo[b][1,4]oxazin-4-yl)-2-methylpropan-1-one]
MIC [1]: ≤ 0.39 µM | MIC [2]: 1.56 to 3.13 µM (≈ 0.612 to 1.23 µg/mL) | Vd [3]: 19.7 L/kg | reduction of bacterial burden in the blood compared to vehicle ([4]; CD-1 mice, single dose IV bolus 20 mg/kg, 9 h from initial infection): 7.43 log | more efficacious than comparative compound (III), blood ([4]; difference in log reduction, 9 h): 2.5 log | bacterial burden (CFU) in the blood at end of study ([4]; single dose IV bolus 20 mg/kg, 9 h from initial infection): below the limit of detection (LOD) | bacterial burden in the urine at end of study (E. coli UT189 [5]; IV bolus 20 mg/kg TID over 3 days, 96 h): below the limit of detection (LOD) | reduction of bacterial burden in the bladder compared to vehicle (E. coli UT189 [5]; [7]): 5.67 log | reduction of bacterial burden in the kidney compared to vehicle (E. coli UT189 [5]; [7]): 4.73 log | more efficacious than comparative compound (III), bladder (E. coli UT189 [5]; [8]): 3 log | more efficacious than comparative compound (III), urine (E. coli UT189 [5]; [8]): 3 log | reduction of bacterial burden in the urine compared to vehicle (E. coli UT189 [5]; female C3H/HeN mice, IV bolus 20 mg/kg TID over 3 days, 96 h after initial infection): 6.59 log | reduction of bacterial burden in the bladder compared to vehicle (E. coli UT189 [6]; [9]): 5.84 log | reduction of bacterial burden in the kidney compared to vehicle (E. coli UT189 [6]; [9]): 4.3 log | reduction of bacterial burden in the urine compared to vehicle (E. coli UT189 [6]; [9]): 5.87 log | reduction of bacterial burden in the bladder compared to vehicle (E. coli UT189 [6]; [10]): 5.01 log | reduction of bacterial burden in the kidney compared to vehicle (E. coli UT189 [6]; [10]): 3.17 log | bacterial burden in the bladder at end of study (E. coli UT189 [6]; BID (5 hrs apart)): below the limit of detection (LOD) | bacterial burden in the kidney at end of study (E. coli UT189 [6]; BID (5 hrs apart)): below the limit of detection (LOD) | bacterial burden in the urine at end of study (E. coli UT189 [6]; BID (5 hrs apart)): below the limit of detection (LOD) | bacterial burden in the bladder at end of study (E. coli UT189 [6]; QD): below the limit of detection (LOD) | bacterial burden in the urine at end of study (E. coli UT189 [6]; QD): below the limit of detection (LOD) | reduction of bacterial burden in the urine compared to vehicle (E. coli UT189 [6]; female C3H/HeN mice, 1 h IV infusion 20 mg/kg QD for three days): 4.86 log
